Tests used:
mice = experiment: In vivo delivery of FLuc-mRNA lipid nanoparticles in mice, in vivo imaging (IVIS)
How it was run: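 Mice (n=3) received about 75 μL FLuc-mRNA LNP per mouse intramuscularly (rectus femoris), intravenously (tail vein), intraperitoneally or subcutaneously (back). After injection, D-luciferin (200 μL, 15 mg/mL) was given i.p. 10-15 min before IVIS imaging.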

[1] = Particle size and PDI of nucleic acid lipid nanoparticle preparations by dynamic light scattering; type: physicochemical
How it was run: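 LNP solution (about 0.04 mg/mL mRNA before dilution) was diluted in ultrapure water and mixed by gentle pipetting. Particle size and PDI were then measured by dynamic light scattering.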

[2] = Potential characterization of nucleic acid lipid nanoparticle preparations; type: physicochemical
Protocol: 20 μL of the nucleic acid lipid nanoparticle solution (containing about 0.04 mg/mL mRNA) was taken and added with 780 μL of ultrapure water, used a pipette tip to gently blow and mix, and the potential of the nanopreparation was detected by Malvern particle sizer (model ZEN3700).
27.5 μL nucleic acid lipid nanoparticle solution (containing about 0.04 mg/mL mRNA) was taken and added with 200 μL ultrapure water. A pipette tip was used to gently blow the sample and mix well. The particle size of the nanopreparation was detected by Malvern Dynamic Light Scattering Instrument (Malvern Instruments Ltd., ZEN3700, UK). After the detection, the sample was recovered to an EP tube, and 600 μL of ultrapure water was added, gently blown with a pipette tip, and the potential of the nanopreparation was measured by a Malvern particle size meter.

[3] = IM, DMG-PEG2000:DSPC:Chol:compound 1.40:11.15:38.95:48.50, N/P 20, Fluc-mRNA
[4] = IV, organ not given, DMG-PEG2000:DSPC:Chol:compound 1.40:11.15:38.95:48.50, N/P 20, Fluc-mRNA
[5] = DMG-PEG2000:DSPC:Chol:compound 1.40:11.15:38.95:48.50, N/P 20
[6] = IM, DMG-PEG2000:DSPC:Chol:compound 1.40:11.15:38.95:48.50, N/P 30, Fluc-mRNA
[7] = DMG-PEG2000:DSPC:Chol:compound 1.40:11.15:38.95:48.50, N/P 30
[8] = IV, body, DMG-PEG2000:DSPC:Chol:compound 1.40:11.15:38.95:48.50, N/P 30, Fluc-mRNA
[9] = IV, liver, DMG-PEG2000:DSPC:Chol:compound 1.40:11.15:38.95:48.50, N/P 30
[10] = IV, liver, DMG-PEG2000:DSPC:Chol:compound 1.40:11.15:38.95:48.50, N/P 30, Fluc-mRNA
[11] = IV, lung, DMG-PEG2000:DSPC:Chol:compound 1.40:11.15:38.95:48.50, N/P 30
[12] = IV, lung, DMG-PEG2000:DSPC:Chol:compound 1.40:11.15:38.95:48.50, N/P 30, Fluc-mRNA
[13] = IV, spleen, DMG-PEG2000:DSPC:Chol:compound 1.40:11.15:38.95:48.50, N/P 30
[14] = IV, spleen, DMG-PEG2000:DSPC:Chol:compound 1.40:11.15:38.95:48.50, N/P 30, Fluc-mRNA
[15] = DMG-PEG2000:DSPC:Chol:compound 1.40:11.15:38.95:48.50, N/P 40
[16] = mRNA LNP, 1.00:10.00:33.00:56.00, N/P 42, IV, liver
[17] = mRNA LNP, 1.00:10.00:33.00:56.00, N/P 42, IV, lung
[18] = mRNA LNP, 1.00:10.00:33.00:56.00, N/P 42, IV, spleen
[19] = mRNA LNP, 1.40:11.15:38.95:48.50, N/P 30, IV, liver
[20] = mRNA LNP, 1.40:11.15:38.95:48.50, N/P 30, IV, lung
[21] = mRNA LNP, 1.40:11.15:38.95:48.50, N/P 30, IV, spleen
[22] = mRNA LNP, 1.00:10.00:33.00:56.00, N/P 42
[23] = mRNA LNP, 1.40:11.15:38.95:48.50, N/P 30

CCCCCCCCCCCCOC(=O)C(O)CN(CCCCCCCN(CC(O)C(=O)OCCCCCCCCCCCC)CC(O)C(=O)OCCCCCCCCCCCC)CC(O)C(=O)OCCCCCCCCCCCC (stereo not drawn) [Compound L0322]
IVIS (mice; [3]): 8.23E+05 | IVIS (mice; [4]): 2.72E+05 | PDI [1, 5]: 0.40 | Particle size (nm) [1, 5]: 260.70 nm | Zeta potential (mV) [2, 5]: 9.14 mV

CCCCCCCCCCOC(=O)C(O)CN(CCCCCCCN(CC(O)C(=O)OCCCCCCCCCC)CC(O)C(=O)OCCCCCCCCCC)CC(O)C(=O)OCCCCCCCCCC (stereo not drawn) [Compound L0321]
IVIS (mice; [3]): 1.37E+05 | IVIS (mice; [4]): 2.11E+05 | PDI [1, 5]: 0.48 | Particle size (nm) [1, 5]: 207.73 nm | Zeta potential (mV) [2, 5]: −0.61 mV

CCCCCCCCCCCCNC(=O)C(O)CNCCN(C)CCN(CC(O)C(=O)NCCCCCCCCCCCC)CC(O)C(=O)NCCCCCCCCCCCC (stereo not drawn) [Compound L0290]
IVIS (mice; [6]): 3.06E+05 | IVIS (mice; IV, organ not given, DMG-PEG2000:DSPC:Chol:compound 1.40:11.15:38.95:48.50, N/P 30, Fluc-mRNA): 1.18E+06 | PDI [1, 7]: 0.17 | Particle size (nm) [1, 7]: 89.51 nm | Zeta potential (mV) [2, 7]: 15.97 mV

CCCCCCCCCCOC(=O)C(O)CN(CCOCCOCCN(CC(O)C(=O)OCCCCCCCCCC)CC(O)C(=O)OCCCCCCCCCC)CC(O)C(=O)OCCCCCCCCCC (stereo not drawn) [Compound L0324]
IVIS (mice; [3]): 4.15E+05 | IVIS (mice; [4]): 7.27E+05 | PDI [1, 5]: 0.47 | Particle size (nm) [1, 5]: 445.20 nm | Zeta potential (mV) [2, 5]: 5.44 mV

CCCCCCC(CCCCCC)C(=O)OCCCCOC(=O)C(O)CN(CCCN(C)CCCN(CC(O)C(=O)OCCCCOC(=O)C(CCCCCC)CCCCCC)CC(O)C(=O)OCCCCOC(=O)C(CCCCCC)CCCCCC)CC(O)C(=O)OCCCCOC(=O)C(CCCCCC)CCCCCC (stereo not drawn) [Compound L0294]
IVIS (mice; [6]): 3.81E+07 | IVIS (mice; [8]): 3.72E+08 | % of organ targeting (mice; [9]): 38.21% | IVIS (mice; [10]): 5.13E+07 | % of organ targeting (mice; [11]): 7.55% | IVIS (mice; [12]): 1.01E+07 | % of organ targeting (mice; [13]): 54.25% | IVIS (mice; [14]): 7.28E+07 | PDI [1, 7]: 0.13 | Particle size (nm) [1, 7]: 129.13 nm | Zeta potential (mV) [2, 7]: 9.23 mV

CCCCCCOC(C)OCCCCCCOC(=O)C(O)CN(CCCN(CC(O)C(=O)OCCCCCCOC(C)OCCCCCC)CC(O)C(=O)OCCCCCCOC(C)OCCCCCC)CCCN(CC(O)C(=O)OCCCCCCOC(C)OCCCCCC)CC(O)C(=O)OCCCCCCOC(C)OCCCCCC (stereo not drawn) [Compound L0340]
IVIS (mice; [6]): 4.87E+07 | IVIS (mice; [8]): 9.07E+07 | % of organ targeting (mice; [9]): 65.77% | IVIS (mice; [10]): 2.85E+07 | % of organ targeting (mice; [11]): 1.45% | IVIS (mice; [12]): 6.29E+05 | % of organ targeting (mice; [13]): 32.78% | IVIS (mice; [14]): 1.42E+07 | PDI [1, 7]: 0.12 | Particle size (nm) [1, 7]: 125.77 nm | Zeta potential (mV) [2, 7]: 4.11 mV

CCCCCCCCCCCCNC(=O)C(O)CN(CCCN(CCCN(CC(O)C(=O)NCCCCCCCCCCCC)CC(O)C(=O)NCCCCCCCCCCCC)CC(O)C[N+](C)(C)C)CC(O)C(=O)NCCCCCCCCCCCC (stereo not drawn) [Compound L0302]
IVIS (mice; IM, DMG-PEG2000:DSPC:Chol:compound 1.40:11.15:38.95:48.50, N/P 40, Fluc-mRNA): 6.87E+05 | IVIS (mice; IV, body, DMG-PEG2000:DSPC:Chol:compound 1.40:11.15:38.95:48.50, N/P 40, Fluc-mRNA): 4.41E+06 | % of organ targeting (mice; IV, liver, DMG-PEG2000:DSPC:Chol:compound 1.40:11.15:38.95:48.50, N/P 40): 1.31% | IVIS (mice; IV, liver, DMG-PEG2000:DSPC:Chol:compound 1.40:11.15:38.95:48.50, N/P 40, Fluc-mRNA): 2.05E+05 | % of organ targeting (mice; IV, lung, DMG-PEG2000:DSPC:Chol:compound 1.40:11.15:38.95:48.50, N/P 40): 97.12% | IVIS (mice; IV, lung, DMG-PEG2000:DSPC:Chol:compound 1.40:11.15:38.95:48.50, N/P 40, Fluc-mRNA): 1.52E+07 | % of organ targeting (mice; IV, spleen, DMG-PEG2000:DSPC:Chol:compound 1.40:11.15:38.95:48.50, N/P 40): 1.57% | IVIS (mice; IV, spleen, DMG-PEG2000:DSPC:Chol:compound 1.40:11.15:38.95:48.50, N/P 40, Fluc-mRNA): 2.47E+05 | PDI [1, 15]: 0.21 | Particle size (nm) [1, 15]: 132.07 nm | Zeta potential (mV) [2, 15]: 16.93 mV

CCCCCCCCCCCCNC(=O)CCN(CCCN(C)CCCN(CCC(=O)NCCCCCCCCCCCC)CCC(=O)NCCCCCCCCCCCC)CCC(=O)NCCCCCCCCCCCC [L0263-Control, reference compound]
% of organ targeting (mice; [16]): 0.59% | IVIS (mice; [16]): 5.33E+06 | % of organ targeting (mice; [17]): 97.16% | IVIS (mice; [17]): 8.80E+08 | % of organ targeting (mice; [18]): 2.25% | IVIS (mice; [18]): 2.04E+07 | IVIS (mice; mRNA LNP, 1.40:11.15:38.95:48.50, N/P 30, IM, organ not given): 7.79E+05 | % of organ targeting (mice; [19]): 1.59% | IVIS (mice; [19]): 3.11E+06 | % of organ targeting (mice; [20]): 80.11% | IVIS (mice; [20]): 1.57E+08 | % of organ targeting (mice; [21]): 18.30% | IVIS (mice; [21]): 3.59E+07 | IVIS (mice; mRNA LNP, DMG-PEG2000:DSPC:Chol:lipid 1.00:10.00:33.00:56.00, N/P 42, IV, body): 1.28E+08 | IVIS (mice; mRNA LNP, DMG-PEG2000:DSPC:Chol:lipid 1.40:11.15:38.95:48.50, N/P 30, IV, body): 5.69E+07 | PDI [1, 22]: 0.13 | Particle size (nm) [1, 22]: 112.27 nm | PDI [1, 23]: 0.16 | Particle size (nm) [1, 23]: 102.50 nm | Zeta potential (mV) [2, 22]: 11.13 mV | Zeta potential (mV) [2, 23]: 10.97 mV

CCCCCCCCCCNC(=O)C(O)CN(CCCN(CCCN(CC(O)C(=O)NCCCCCCCCCC)CC(O)C(=O)NCCCCCCCCCC)C(CO)CO)CC(O)C(=O)NCCCCCCCCCC (stereo not drawn) [Compound L0287]
IVIS (mice; [6]): 1.81E+06 | IVIS (mice; [8]): 1.89E+07 | % of organ targeting (mice; [9]): 34.55% | IVIS (mice; [10]): 3.26E+06 | % of organ targeting (mice; [11]): 25.98% | IVIS (mice; [12]): 2.45E+06 | % of organ targeting (mice; [13]): 39.46% | IVIS (mice; [14]): 3.72E+06 | PDI [1, 7]: 0.18 | Particle size (nm) [1, 7]: 137.37 nm | Zeta potential (mV) [2, 7]: 14.13 mV

CCCCCCCCCCCCOC(=O)C(O)CN(CCCCCN(CC(O)C(=O)OCCCCCCCCCCCC)CC(O)C(=O)OCCCCCCCCCCCC)CC(O)C(=O)OCCCCCCCCCCCC (stereo not drawn) [Compound L0319]
IVIS (mice; [3]): 7.22E+05 | IVIS (mice; [4]): 1.32E+06 | PDI [1, 5]: 0.13 | Particle size (nm) [1, 5]: 172.83 nm | Zeta potential (mV) [2, 5]: 11.20 mV

— patent US12233161B1, “Lipids and lipid nanoparticle formulations” (LONGUIDE BIOPHARMA CORPORATION, priority 2024, dated 2025)
